Test systems include MDA-MB-435; UO-31; SF-295; DU-145; MDA-N; A498; HL-60; NCI-H23; MDA-MB-231; K562; SR; SN12C; HCT-15; UACC-257; OVCAR-3; RXF 393; SF-539; OVCAR-4; UACC-62; MCF7.
Test in all cases: NCI-60 cell line screen, 48 h

Where “and” joins values, the source holds several entries; their conditions need not be identical. Identical values can stand only once.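 Growth conditions: 96-well plates. Treatment: test compound, 48 hours, 5 concentrations. Analysis: linear interpolation between bracketing concentrations; unreached endpoints set to highest concentration. GI50 is the concentration that inhibits growth by half.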 Calls of active or inactive are those of the source. No stated cut-off is given here; in the data, active = GI50 up to about 1.1 µM and inactive = higher.

For `COC(=O)C1OC(O[C@H]2CC[C@]3(C)[C@H]4CC=C5[C@@H]6CC(C)(C)CC[C@]6(C(=O)OC6OCC(O)C(O)C6OC6OC(C)C(OC7OCC(O)C(O)C7O)C(O)C6O)[C@H](O)C[C@@]5(C)[C@]4(C)CC[C@H]3C2(C)C)C(O)C(O)C1O` (stereo partly specified), the GI50 in the experiment on MDA-MB-435 is 2.32 µM (inactive) and 1.95 µM (inactive); in the experiment on UO-31, 1.71 µM (inactive) and 2.04 µM (inactive); with SF-295, 3.95 µM (inactive) and 3.91 µM (inactive); in the experiment on DU-145, 9.73 µM (inactive) and 13.4 µM (inactive); in the experiment with MDA-N it was 1.87 µM (inactive) and 3.43 µM (inactive); in the experiment with A498 it was 1.75 µM (inactive) and 1.86 µM (inactive). In addition, the GI50 is 2.63 µM (inactive) and 2.56 µM (inactive) in the experiment on HL-60; 2.14 µM (inactive) and 2.24 µM (inactive) with NCI-H23; 1.91 µM (inactive) and 2.36 µM (inactive) in the experiment on MDA-MB-231; 6.28 µM (inactive) and 10.8 µM (inactive) in the experiment with K562; 3.14 µM (inactive) and 3.86 µM (inactive) in the experiment with SR; 1.84 µM (inactive) and 1.85 µM (inactive) with SN12C. In addition, the GI50 with HCT-15 is 12.9 µM and 13.7 µM; in the experiment on UACC-257, 2.9 µM (inactive) and 5.79 µM (inactive); in the experiment with OVCAR-3, 11.8 µM (inactive) and 14.8 µM (inactive); in the experiment with RXF 393 it was 11.3 µM (inactive) and 14.9 µM (inactive).
Regarding `COC(=O)C1=C(O)C(C(=O)OC)[C@]2(O)[C@@H](C(=O)OC)[C@H]1[C@H](C)[C@@H](c1ccccc1)[C@@H]2C(=O)OC` (stereo partly specified), the GI50 with MDA-MB-435 is 46.1 µM (inactive); with SF-539 it was > 100 µM (inactive); in the experiment with SF-295, 78.2 µM (inactive); in the experiment with DU-145, > 100 µM (inactive); with MDA-N, 29.2 µM (inactive); with HL-60 it was 26.4 µM (inactive). Besides, the GI50 in the experiment with OVCAR-4 is 80 µM (inactive); in the experiment on NCI-H23, 44.4 µM (inactive); in the experiment with MDA-MB-231, > 100 µM (inactive); in the experiment on K562, 57.4 µM (inactive); in the experiment with SN12C, 66.4 µM (inactive); in the experiment with HCT-15, 57.8 µM. Also, the GI50 with UACC-62 is 65.5 µM (inactive); in the experiment on UACC-257, > 100 µM (inactive); with OVCAR-3 it was 54 µM (inactive); with RXF 393 it was > 100 µM (inactive).
`CCCCCCCCCCCNC=O`: the GI50 in the experiment on MDA-MB-435 is 73.8 µM (inactive); in the experiment with UO-31, 33.8 µM (inactive); in the experiment on SF-539, > 100 µM (inactive); with SF-295 it was 36.9 µM (inactive); in the experiment with DU-145 it was 84.7 µM (inactive); with MDA-N, 56.6 µM (inactive). The GI50 in the experiment on A498 is 22.4 µM (inactive); with HL-60, 15.1 µM (inactive); with OVCAR-4, 45.3 µM (inactive); in the experiment with NCI-H23 it was 44.5 µM (inactive); in the experiment on MDA-MB-231, 48.6 µM (inactive); in the experiment with K562 it was 23.7 µM (inactive). In addition, the GI50 in the experiment on SN12C is 63.4 µM (inactive); in the experiment with HCT-15, 27.4 µM; in the experiment on MCF7, 37.9 µM (inactive); in the experiment with UACC-62 it was 51.2 µM (inactive); in the experiment on UACC-257 it was 32.4 µM (inactive); with OVCAR-3, 35.4 µM (inactive). Further, the GI50 in the experiment with RXF 393 was 48.8 µM (inactive).
As to `CC(C)(C)OC(=O)n1c(Cl)c(C=O)c2ccccc21`, the GI50 in the experiment on MDA-MB-435 was 43.9 µM (inactive); in the experiment with UO-31, 19.1 µM (inactive); with SF-539 it was 30.1 µM (inactive); in the experiment on SF-295 it was 63.2 µM (inactive); in the experiment on DU-145 it was 19.3 µM (inactive); with MDA-N it was 44.5 µM (inactive). For the same compound, the GI50 in the experiment with A498 was 43.6 µM (inactive); with HL-60 it was 33.8 µM (inactive); in the experiment with OVCAR-4, 36.6 µM (inactive); with NCI-H23, 23.3 µM (inactive); with MDA-MB-231, 33.3 µM (inactive); in the experiment with K562, 38.7 µM (inactive). The GI50 in the experiment on SR was 31.2 µM (inactive); with SN12C, 23.7 µM (inactive); in the experiment with HCT-15 it was 27.1 µM; in the experiment on UACC-62 it was 19.3 µM (inactive); in the experiment on UACC-257, 28.8 µM (inactive); in the experiment on OVCAR-3, 19.4 µM (inactive).
Turning to `O=c1c2cc(Br)ccc2oc2ccc(Br)cc12`, the GI50 in the experiment on MDA-MB-435 was > 100 µM (inactive); in the experiment with UO-31 it was > 100 µM (inactive); with SF-539, > 100 µM (inactive); in the experiment with SF-295, > 100 µM (inactive); with DU-145, 84.1 µM (inactive); in the experiment on MDA-N, > 100 µM (inactive). The GI50 was > 100 µM (inactive) in the experiment on A498; > 100 µM (inactive) in the experiment on HL-60; 46.3 µM (inactive) with OVCAR-4; > 100 µM (inactive) with NCI-H23; > 100 µM (inactive) in the experiment with MDA-MB-231; > 100 µM (inactive) in the experiment with K562. Moreover, the GI50 in the experiment on SN12C was > 100 µM (inactive); with HCT-15 it was above 100 µM; with MCF7, 27.5 µM (inactive); in the experiment on UACC-62 it was > 100 µM (inactive); in the experiment with UACC-257, > 100 µM (inactive); with OVCAR-3 it was 71.8 µM (inactive). Besides, in the experiment on RXF 393, the GI50 is > 100 µM (inactive).
With `O=C(NCCCN(CCCCN(CCCNC(=O)C(F)(F)F)CCCc1ccccc1)CCCc1ccccc1)C(F)(F)F`, the GI50 with MDA-MB-435 was 1.76 µM (inactive); in the experiment with UO-31, 1.26 µM (inactive); in the experiment on SF-539 it was 1.57 µM (inactive); in the experiment on SF-295, 1.81 µM (inactive); in the experiment with DU-145 it was 2 µM (inactive); in the experiment on MDA-N, 1.65 µM (inactive). In addition, the GI50 in the experiment on A498 is 2.21 µM (inactive); with HL-60, 2.93 µM (inactive); with OVCAR-4, 5.78 µM (inactive); in the experiment on NCI-H23, 12.7 µM (inactive); with MDA-MB-231, 1.63 µM (inactive); with K562, 2.87 µM (inactive). Further, the GI50 with SN12C is 2.08 µM (inactive); in the experiment on HCT-15 it was 1.44 µM; in the experiment with MCF7 it was 1.48 µM (inactive); in the experiment on UACC-62 it was 1.8 µM (inactive); with UACC-257, 1.71 µM (inactive); in the experiment with RXF 393, 1.3 µM (inactive).
Consider `NS(=O)(=O)c1ccc(NS(=O)(=O)c2ccc(NC(=O)N(c3ccccc3)c3ccccc3)cc2)cc1`, for which the GI50 in the experiment with MDA-MB-435 was 24.9 µM (inactive); in the experiment on UO-31 it was > 100 µM (inactive); with SF-295, 35.7 µM (inactive); with DU-145, 43.3 µM (inactive); in the experiment on MDA-N, 32.3 µM (inactive); in the experiment on A498 it was > 100 µM (inactive). Besides, the GI50 in the experiment on OVCAR-4 was 45.2 µM (inactive); with NCI-H23, > 100 µM (inactive); with MDA-MB-231, > 100 µM (inactive); in the experiment with K562, 26.1 µM (inactive); with SN12C, > 100 µM (inactive); with HCT-15 it was above 100 µM. The GI50 was 52.7 µM (inactive) in the experiment on MCF7; 63.4 µM (inactive) with UACC-62; 77.4 µM (inactive) with UACC-257; 19.1 µM (inactive) in the experiment on OVCAR-3; 21.9 µM (inactive) in the experiment on RXF 393.
For `O=c1ccc2ccc(O)cc2o1` [UMBELLIFERONE], the GI50 in the experiment on MDA-MB-435, in the experiment with UO-31, in the experiment with SF-539, with SF-295, in the experiment on DU-145 and in the experiment with MDA-N was > 100 µM (inactive) in each case. The GI50 in the experiment with A498, with HL-60, in the experiment with OVCAR-4, with NCI-H23, with MDA-MB-231 and in the experiment on SN12C was > 100 µM (inactive) throughout. Moreover, the GI50 in the experiment on HCT-15 was above 100 µM; in the experiment on MCF7, > 100 µM (inactive); in the experiment on UACC-62 it was > 100 µM (inactive); in the experiment on UACC-257 it was > 100 µM (inactive); with OVCAR-3 it was > 100 µM (inactive); in the experiment with RXF 393, > 100 µM (inactive).

Values taken from ChEMBL document CHEMBL1201862, “PubChem BioAssay data set” (2004).
